# Test results as given in paper PMC7558015, “Enhanced Intestinal Absorption and Pharmacokinetic Modulation of Berberine and Its Metabolites through the Inhibition of P-Glycoprotein and Intestinal Metabolism in Rats Using a Berberine Mixed Micelle Formulation” (Pharmaceutics, 2020).
# Read-outs that look alike come from different tables or passages of the source.
# Columns and labels:
# [1] = Pharmacokinetic study after oral administration in rats; type: in vivo
# Description: All the animal procedures were approved by the animal care and use committee of Kyungpook National University (Daegu, Korea; Approval No. KNU-2014-0097 and KNU-2019-0004). Male Sprague–Dawley rats weighing 250–270 g (8 weeks old) were purchased from Samtako Bio Korea (Osan, Kyunggido, Korea). When the rats arrived, they were housed with a 12 h light/dark cycle. Food and water were supplied ad libitum for 1 week prior to the animal experiment. […] The femoral vein, femoral arteries, and bile ducts of the rats were cannulated with polyethylene tubes (PE50 or PE10, Jungdo, Seoul, Korea) under anesthesia with isoflurane […] on the warming surgery table (YTK corp. Seoul, Korea), and the rats were remained on the warming table to maintain body temperature during the pharmacokinetic study. […] The prepared berberine suspension or berberine formulation was administered to rats via oral gavage. Blood samples (approximately 150 µL) were taken via the femoral artery at 0, 0.25, 0.5, 1, 1.5, 2, 4, 8, and 12 h after the oral administration, and pre-warmed saline (approximately 150 µL) was injected into the femoral vein to compensate the blood loss. The blood samples were centrifuged at 10,000× g for 1 min at 4 °C. Bile and urine samples were collected every 4 h for 12 h. After 12 h, the bile and urine samples were pooled and weighed. Aliquots (50 µL each) of plasma, urine, and bile samples were stored at −80 °C for the analysis of berberine and its metabolites. Plasma, urine, and bile samples (50 µL) were added to 150 µL of methanol containing propranolol (10 ng/mL), vortex-mixed for 15 min, and centrifuged at 10,000× g for 5 min at 4 °C. An aliquot (10 µL) of the supernatant was injected into the LC–MS/MS system. Agilent 6430 Triple Quad LC/MS system (Agilent, Wilmington, DE, USA) coupled with an Agilent 1260 series HPLC system was used for the analysis of berberine and its metabolites using the modified method of Kwon et al.. The separation was performed on a Synergy polar RP column (2.0 mm × 150 mm, 4 μm; Phenomenex, Torrance, CA, USA) using a gradient elution of the mobile phase that consisted of methanol and water with 0.1% formic acid at a flow rate of 0.2 mL/min. The composition of the mobile phase was as follows: 55% methanol for 0–2.5 min, 70% methanol for 3–5 min, 55% methanol for 5.3–12 min. The retention time was 3.01 min and 3.53 min for thalifendine-glucuronide and berberrubine-glucuronide, 6.30 min for thalifendine-sulfate, 7.79 min for berberine, 5.47 min for thalifendine, 6.38 min for berberrubine, and 2.53 min for propranolol. Mass spectra were recorded by electrospray ionization with a positive mode. Quantification was carried out using MRM at m/z 498.1 → 322.1 for thalifendine-glucuronide and berberrubine-glucuronide, m/z 402.0 → 322.1 for thalifendine-sulfate, m/z 336.1 → 320.0 for berberine, m/z 322.1 → 307.1 for thalifendine and berberrubine, and m/z 260.0 → 116.0 for propranolol. […] The thalifendine-glucuronide, berberrubine-glucuronide, and thalifendine-sulfate were relatively quantitated using berberine’s standard curve, since the authentic standard compounds were not available. The pharmacokinetic parameters were calculated by non-compartmental analysis using the WinNonlin Version 5.1 software (Pharsight, Certara, NJ, USA). Statistical analysis was performed using SPSS for Windows (version 24.0; IBM Corp., Armonk, NY, USA).
# [2] = system: β-Glucuronidase and sulfatase; experiment: Glucuronidase and sulfatase treatment (bile samples, stability of standards); type: in vitro ADME, Helix pomatia
# Description: The reaction was terminated by adding 150 µL of ice-cold methanol containing propranolol (10 ng/mL), vortex-mixed for 5 min, and centrifuged at 10,000× g for 5 min at 4 °C. An aliquot (10 µL) of the supernatant was injected into the LC–MS/MS system.
# Caco-2 cells [3] = experiment: cells
# Description: Caco-2 cells were seeded onto 96-well plates (BD-Corning, Corning, NY, USA) at a density of 1 × 10^5 cells/well, and cultured for 24 h at 37 °C in a 5% CO2 incubator. […] As a control group, berberine was treated at concentrations of 0, 1, 5, 10, 50, 100, 500, and 1000 μM. After 24 h of treatment, 20 μL of CellTiter 96 aqueous one solution from a cell proliferation assay kit (Promega, Madison, WI, USA) was added to the culture medium and incubated for 1 h. The absorbance rate of the reaction mixture was measured at 492 nm using an Infiniti M200Pro microplate reader (Tecan, Zurich, Switzerland).
# [4] = Caco-2 permeability / transport of berberine and berberine formulation; type: in vitro ADME; settings: human
# Description: (§1) The cells were grown for 21 days and the culture medium was changed every 2 days. The integrity of the cell monolayers was evaluated prior to the transport experiments by measuring the transepithelial electrical resistance (TEER). […] To characterize the absorption transport of berberine in Caco-2 cells, the apical to basal (A to B) and basal to apical (B to A) transport of berberine was measured. […] The insert was then transferred to a well containing fresh HBSS medium every 15 min for 1 h. […] The transport medium on the apical side was replaced with 0.4 mL of fresh incubation medium every 15 min for 1 h. […] The insert was then transferred to a well containing fresh HBSS medium every 15 min for 1 h. […] The transport medium on the apical side was replaced with 0.4 mL of fresh incubation medium every 15 min for 1 h. […] The TEER values were monitored before and after the transport experiments with berberine formulation using an epithelial TEER meter (World Precision Instruments, Sarasota, FL, USA). A 100 μL aliquot of each sample was added to a 100 μL aliquot of ice-cold methanol containing 10 ng/mL of propranolol (IS). After vortexing and centrifuging the samples at 16,000× g for 10 min, the supernatant was injected directly into the LC-MS/MS system.
# Caco-2 cells [5] = experiment: as above; type: in vitro ADME
# Description: as §1
# [6] = system: human colon cancer HCT-8 cells; parameters: method as in PMID 23682426; settings: cited from earlier work
# [7] = parameters: method as in PMID 15531889; settings: 32 hypercholesterolemic patients; cited from earlier work
# [8] = rats; cited from earlier work
# [9] = cited from earlier work
# [10] = after Berberine Formulation PO 50 mg/kg, rats
# [11] = after Berberine PO 50 mg/kg, rats
# [12] = berberine formulation group compared with berberine group, PO 50 mg/kg, rats
# [13] = male, Sprague–Dawley, rat, plasma, po, 50 mg/kg, plasma, after Berberine Formulation PO 50 mg/kg, rats
# [14] = male, Sprague–Dawley, rat, plasma, po, 50 mg/kg, plasma, after Berberine Formulation PO 50 mg/kg, rats, read-out: Tmax (converted)
# [15] = male, Sprague–Dawley, rat, plasma, po, 50 mg/kg, plasma, after Berberine PO 50 mg/kg, rats
# [16] = male, Sprague–Dawley, rat, plasma, po, 50 mg/kg, plasma, after Berberine PO 50 mg/kg, rats, read-out: Tmax (converted)
# [17] = 8 h of incubation, 37 °C, pH 5.0
compound,measurement,setting,value
COc1c(O)ccc2cc3[n+](cc12)CCc1cc2c(cc1-3)OCO2 [Thalifendine],"Xb,12h (amount excreted into bile for 12 h)",[1]; [10],1871 ± 1092 ng
same,"Xu,12h (amount excreted into urine for 12 h)",[1]; [10],7209 ± 2632 ng
same,Metabolic ratio (metabolite AUC to berberine AUC),[1]; [11],0.09%
same,"Xb,12h (amount excreted into bile for 12 h)",[1]; [11],281.5 ± 250.2 ng
same,"Xu,12h (amount excreted into urine for 12 h)",[1]; [11],199.3 ± 76.1 ng
same,fold increase in AUC,[1]; [12],9.3 fold
same,AUC,[1]; [13],28.1 ng·h/mL
same,Cmax,[1]; [13],5.45 ± 3.12 ng/mL
same,Tmax,[1]; [14],10.7 h
same,AUC,[1]; [15],3.04 ng·h/mL
same,Cmax,[1]; [15],0.64 ± 0.19 ng/mL
same,Tmax,[1]; [16],7 h
same,stability after glucuronidase and sulfatase treatment,[2]; [17],stable
same,increase of peak after glucuronidase and sulfatase treatment,[2]; rat bile collected 12 h after oral berberine,10.6 fold
COc1ccc2cc3[n+](cc2c1O)CCc1cc2c(cc1-3)OCO2 [Berberrubine],Metabolic ratio (metabolite AUC to berberine AUC),[1]; [10],0.00%
same,"Xb,12h (amount excreted into bile for 12 h)",[1]; [10],0 ng
same,"Xu,12h (amount excreted into urine for 12 h)",[1]; [10],67.78 ± 11.89 ng
same,Metabolic ratio (metabolite AUC to berberine AUC),[1]; [11],0.04%
same,"Xb,12h (amount excreted into bile for 12 h)",[1]; [11],0 ng
same,"Xu,12h (amount excreted into urine for 12 h)",[1]; [11],22.80 ± 15.84 ng
same,AUC,[1]; [13],1.73 ng·h/mL
same,Cmax,[1]; [13],0.31 ± 0.18 ng/mL
same,Tmax,[1]; [14],0.917 h
same,AUC,[1]; [15],1.34 ng·h/mL
same,Cmax,[1]; [15],0.16 ± 0.03 ng/mL
same,Tmax,[1]; [16],4.17 h
same,degraded by glucuronidase and sulfatase treatment,[2]; [17],more than 94%
COc1ccc2cc3[n+](cc2c1OC)CCc1cc2c(cc1-3)OCO2 [Berberine],IC50,"Caco-2 cells [3]; Homo sapiens, Caco-2, 24 h, read-out: IC50 (cell viability)",933 µM
same,berberine concentration without (significant) cytotoxicity,"Caco-2 cells [3]; human, 24 h",up to 100 μM
same,"efflux ratio at 1 h, 1 μM","[4]; Caco-2, pH 7.4, 1 μM of berberine (alone or in formulation)",14.1
same,"efflux ratio at 1 h, 100 μM","[4]; Caco-2, pH 7.4, 100 μM of berberine (alone or in formulation)",7.5
same,"efflux ratio at 1 h, 10 μM","[4]; Caco-2, pH 7.4, berberine 10 μM, absence of CsA",13.8
same,"efflux ratio at 1 h, 10 μM","[4]; Caco-2, pH 7.4, with cyclosporine A 25 μM, berberine 10 μM, presence of CsA 25 μM",2.2
same,efflux ratio,Caco-2 cells [5]; 100 μM of berberine (alone or in formulation),7.54
same,CLint (P-gp-mediated efflux clearance),Caco-2 cells [5]; Caco-2,1.61 µL/min
same,Kd (absorptive diffusion clearance),Caco-2 cells [5]; Caco-2,0.03 µL/min
same,Vmax of B to A transport,"Caco-2 cells [5]; Caco-2, 1–100 μM, Michaelis–Menten",10.5 pmol/min
same,Km,"Caco-2 cells [5]; Caco-2, 1–100 μM, Michaelis–Menten, read-out: Km of B to A transport",6.5 µM
same,"Xb,12h (amount excreted into bile for 12 h)",[1]; [10],992 ± 563 ng
same,"Xu,12h (amount excreted into urine for 12 h)",[1]; [10],"21,273 ± 12,517 ng"
same,"Xb,12h (amount excreted into bile for 12 h)",[1]; [11],323.7 ± 155.8 ng
same,"Xu,12h (amount excreted into urine for 12 h)",[1]; [11],47.3 ± 30.1 ng
same,fold increase in AUC,[1]; [12],15.6 fold
same,AUC,[1]; [13],537 ng·h/mL
same,Cmax,[1]; [13],140 ± 29.4 ng/mL
same,Tmax,[1]; [14],0.583 h
same,AUC,[1]; [15],34.5 ng·h/mL
same,Cmax,[1]; [15],67 ± 66.9 ng/mL
same,Tmax,[1]; [16],0.5 h
same,stability after glucuronidase and sulfatase treatment,[2]; [17],stable
same,IC50,[6],470 µM
same,decrease of low-density lipoprotein (LDL) cholesterol,[7],25%
same,decrease of triglycerides,[7],35%
same,lowering of total cholesterol,[7],29%
same,AUC post intraduodenal administration as share of AUC post intraportal vein administration,[8],~0.5%
same,AUC post intraportal vein administration as share of intravenous AUC,[8],72%
same,bioavailability,[8],0.68%
same,oral dose disappeared during gastrointestinal first-pass elimination,[8],99.5%
same,AUCliver,[9]; liver,728.6 ng·h/mL
same,share of oral dose entering the portal vein,[9]; oral,0.5%
same,share of oral dose metabolized in the enterocytes,[9]; oral,About 43.5%
same,share of oral dose not absorbed (P-gp-mediated efflux and self-aggregation),[9]; oral,About 56%
same,AUCplasma,[9]; plasma,86.4 ng·h/mL
thalifendine/berberrubine-sulfate,Tmax,"[1]; rat, in vivo, po, 50 mg/kg",10.67 ± 2.31 h
same,fold increase in AUC,"[1]; rat, in vivo, po, 50 mg/kg",5.8 fold
